Assays:
[1] = system: Chinese hamster ovary (CHO) cells; settings: 8 mM ammonia; cited from earlier work
CHO cells [2] = assay: Cell viability, Trypan blue exclusion method (Cedex HiRes), Examples 3 and 4; type: cell-based, Chinese hamster; settings: for cell viability: 14 days after the culture
Procedure: (§1) Cells were prepared using the same method as that used in Example 1, and a glutamine-free and 2×HT-containing medium was added to the prepared cells. 4 mM of uridine (catalog No.: U3003, Sigma) or 8 mM of galactose (Catalog No.: G0750, Sigma) was added to the medium. The cells were cultured at 37° C. and 5% CO2, and the medium was replaced with a fresh medium every two days. Cells cultured in a glutamine-free medium were used as a negative control.
(§2) After about 14 days, viable cell density and cell viability were measured using a Cedex HiRes analyzer (Model No.: 05650216001, Roche) through a scanner-based imaging method and a Trypan blue exclusion method. The viable cell density (CHO cells/ml) of cells cultured in the presence of uridine and in the presence of galactose is illustrated in FIGS. 5A and 5B, respectively. In addition, the cell viability (%) of cells cultured in the presence of uridine and in the presence of galactose is illustrated in FIGS. 6A and 6B, respectively.
as §1, with “1” for “4”, “magnesium” for “uridine (catalog No.: U3003, Sigma) or 8 mM of galactose”, “M4880,” for “G0750,”
After about 14 days, viable cell density and cell viability were measured using a Cedex HiRes analyzer (Model No.: 05650216001, Roche) through a scanner-based imaging method and a Trypan blue exclusion method, respectively. The viable cell density (CHO cells/ml) and cell viability of the cells cultured in the presence of magnesium are illustrated in FIGS. 7 and 8, respectively.

CHO cells [3] = assay: Viable cell density, scanner-based imaging (Cedex HiRes), Examples 3 and 4; set-up: species or system Chinese hamster; settings: 8 mM galactose added to glutamine-free 2×HT medium; FIG. 5B
Procedure: as §1, §2
Cells were prepared using the same method as that used in Example 1, and a glutamine-free and 2×HT-containing medium was added to the prepared cells. […]
After about 14 days, viable cell density and cell viability were measured using a Cedex HiRes analyzer (Model No.: 05650216001, Roche) through a scanner-based imaging method and a Trypan blue exclusion method, respectively. […]

**Q.** With N [ammonia] as the compound, how does the “inhibition of cell growth” value [1] read?
**A.** 50%

**Q.** What does the source list for O=C[C@H](O)[C@@H](O)[C@@H](O)[C@H](O)CO [galactose, reference compound]?
**A.** cell viability (printed: viable cell density), versus medium without galactose (CHO cells [2]; 8 mM galactose added to glutamine-free 2×HT medium, FIG. 6B): no significant difference; viable cell density, versus medium without galactose (CHO cells [3]): no significant difference

**Q.** With [Mg+2] [magnesium] as the compound, how does the cell viability (CHO cells [2]; 1 mM magnesium added to glutamine-free 2×HT medium) read?
**A.** 91.5%

**Q.** For O=c1ccn([C@@H]2O[C@H](CO)[C@@H](O)[C@H]2O)c(=O)[nH]1 [uridine], which cell viability (CHO cells [2]; 4 mM uridine added to glutamine-free 2×HT medium) is on record?
**A.** 94.6%
